In ChEMBL document CHEMBL1125000, “Phosphorus-containing inhibitors of HMG-CoA reductase. 1. 4-[(2-arylethyl)hydroxyphosphinyl]-3-hydroxy-butanoic acids: a new class of cell-selective inhibitors of cholesterol biosynthesis” (J Med Chem, 1990):

Key:
[1] = target: T1, 3-hydroxy-3-methylglutaryl-coenzyme A reductase (Rattus norvegicus, UniProt P51639); assay: Inhibition of rat microsomal HMG-CoA reductase activity by 50%; details: read-out: I50
T1 sequence (P51639 whole entry): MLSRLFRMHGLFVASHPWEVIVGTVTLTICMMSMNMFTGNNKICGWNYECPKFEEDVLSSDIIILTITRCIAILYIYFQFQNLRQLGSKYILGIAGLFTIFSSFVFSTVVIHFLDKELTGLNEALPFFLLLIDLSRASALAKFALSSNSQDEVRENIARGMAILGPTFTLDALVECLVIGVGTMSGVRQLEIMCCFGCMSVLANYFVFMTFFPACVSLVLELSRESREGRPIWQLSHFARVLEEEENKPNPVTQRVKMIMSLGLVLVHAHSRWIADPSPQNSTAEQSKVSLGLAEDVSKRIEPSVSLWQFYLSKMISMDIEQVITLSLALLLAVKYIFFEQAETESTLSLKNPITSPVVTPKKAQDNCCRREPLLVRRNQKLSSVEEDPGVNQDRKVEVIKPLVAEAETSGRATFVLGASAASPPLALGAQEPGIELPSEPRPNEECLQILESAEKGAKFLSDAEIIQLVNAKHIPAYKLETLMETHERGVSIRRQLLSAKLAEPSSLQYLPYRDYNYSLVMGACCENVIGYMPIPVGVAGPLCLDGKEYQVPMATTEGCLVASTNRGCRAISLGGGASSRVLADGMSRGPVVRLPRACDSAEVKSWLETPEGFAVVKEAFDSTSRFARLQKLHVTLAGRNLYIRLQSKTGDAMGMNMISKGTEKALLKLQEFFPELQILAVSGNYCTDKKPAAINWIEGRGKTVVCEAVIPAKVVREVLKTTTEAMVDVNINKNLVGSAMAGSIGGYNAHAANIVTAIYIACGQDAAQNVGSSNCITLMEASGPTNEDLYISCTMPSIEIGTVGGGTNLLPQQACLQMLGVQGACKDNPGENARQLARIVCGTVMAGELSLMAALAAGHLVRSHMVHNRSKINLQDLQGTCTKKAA

Rattus norvegicus [2] = assay: Inhibitory activity for de novo cholesterol synthesis from [14C]acetate was determined in rat after oral administration (in vivo); type: functional
Rattus norvegicus [3] = assay: Inhibitory activity for de novo cholesterol synthesis from [14C]acetate was determined in rat after intravenous administration (in vivo); type: functional
Homo sapiens = species on record: Homo sapiens; assay: Compound was tested for 50% inhibition of cholesterol synthesis in human skin fibroblasts.; type: functional; details: read-out: I50
Rattus norvegicus [4] = species on record: Rattus norvegicus; assay: Compound was tested for 50% inhibition of cholesterol synthesis in isolated rat hepatocytes.; type: functional; details: Hepatocyte, read-out: I50

| IC50 [1] [nM] | SMILES | ED50 (Rattus norvegicus [2]) [mg/kg] | ED50 (Rattus norvegicus [3]) [mg/kg] | IC50 (Homo sapiens) [nM] | IC50 (Rattus norvegicus [4]) [nM] |
| --- | --- | --- | --- | --- | --- |
| 6.7 | Cc1cc(C)c(/C=C/P(=O)(O)C[C@@H](O)CC(=O)O)c(-c2ccc(F)c(C)c2)c1 | – | – | – | – |
| 120 | CC(C)c1c(CCP(=O)(O)C[C@@H](O)CC(=O)O)n(-c2ccc(F)cc2)c2ccccc12 | – | – | – | – |
| 15 | Cc1cc(C)c(CCP(=O)(O)C[C@@H](O)CC(=O)O)c(-c2ccc(F)c(C)c2)c1 | 6.7 | 0.05 | 64000 | 85 |
| 8.5 | Cc1cc(-c2ccc(F)c(C)c2)c(C#CP(=O)(O)C[C@@H](O)CC(=O)O)c(C(C)C)c1 | – | – | – | – |
| 1.2 | Cc1cc(-c2ccc(F)c(C)c2)c(COP(=O)(O)C[C@@H](O)CC(=O)O)c(C(C)C)c1 | – | – | – | – |
| 162 | Cc1cc(C)c(COP(=O)(O)C[C@@H](O)CC(=O)O)c(-c2ccc(F)c(C)c2)c1 | > 10 | 0.14 | 327000 | 260 |
| 4500 | Cc1cc(C)c(OCP(=O)(O)C[C@@H](O)CC(=O)O)c(-c2ccc(F)c(C)c2)c1 | – | – | – | – |
| 3 | O=C(O)C[C@H](O)CP(=O)(O)C#CC1=C(c2ccc(F)cc2)c2ccccc2C12CCCCC2 | – | – | – | – |
| 26 | CC(C)n1c(/C=C/P(=O)(O)C[C@@H](O)CC(=O)O)c(-c2ccc(F)cc2)c2ccccc21 | – | – | – | – |
| 150000 | Cc1cc(C)c(CCCP(=O)(O)C[C@@H](O)CC(=O)O)c(-c2ccc(F)c(C)c2)c1 | – | – | – | – |
| 297 | Cc1cc(C)c(C#CP(=O)(O)C[C@@H](O)CC(=O)O)c(-c2ccc(F)c(C)c2)c1 | – | – | – | – |
| 3.8 | Cc1cc(-c2ccc(F)c(C)c2)c(CCP(=O)(O)C[C@@H](O)CC(=O)O)c(C(C)C)c1 | – | – | – | – |
| 26 | CC[C@H](C)C(=O)O[C@H]1C[C@H](O)C=C2C=C[C@H](C)[C@H](CC[C@@H](O)C[C@@H](O)CC(=O)[O-])[C@H]21.[Na+] [PRAVASTATIN SODIUM] | 0.75 | 0.053 | 3100 | 100 |
| 2.8 | O=C(O)C[C@H](O)CP(=O)(O)C#CC1=C(c2ccc(F)cc2)c2ccccc2C12CCCC2 | 0.38 | 0.027 | 11000 | 245 |
| 1.9 | CC(C)c1c(/C=C/P(=O)(O)C[C@@H](O)CC(=O)O)n(-c2ccc(F)cc2)c2ccccc12 | – | – | – | – |
| 2.1 | O=C(O)C[C@H](O)CP(=O)(O)/C=C/C1=C(c2ccc(F)cc2)c2ccccc2C12CCCC2 | – | – | – | – |
| 2.2 | CC(C)c1c(C#CP(=O)(O)C[C@@H](O)CC(=O)O)n(-c2ccc(F)cc2)c2ccccc12 | 1.1 | 0.09 | 8900 | 93 |
| 21600 | COP(=O)(C[C@@H](O)CC(=O)O)OCc1c(C)cc(C)cc1-c1ccc(F)c(C)c1 (stereo partly specified) | – | – | – | – |
| 3000 | Cc1cc(C)c(/C=C\P(=O)(O)C[C@@H](O)CC(=O)O)c(-c2ccc(F)c(C)c2)c1 | – | – | – | – |
| 24 | CC(C)n1c(CCP(=O)(O)C[C@@H](O)CC(=O)O)c(-c2ccc(F)cc2)c2ccccc21 | – | – | – | – |
| 87.5 | CCc1c(C#CP(=O)(O)C[C@@H](O)CC(=O)O)n(-c2ccc(F)cc2)c2ccccc12 | – | – | – | – |
| 70 | O=C(O)C[C@H](O)CP(=O)(O)C#CC1=C(c2ccc(F)cc2)c2ccccc2C12CC2 | – | – | – | – |
| 6 | CC(C)n1c(C#CP(=O)(O)C[C@@H](O)CC(=O)O)c(-c2ccc(F)cc2)c2ccccc21 | – | – | – | – |
| 89300 | Cc1cc(C)c(CP(=O)(O)C[C@@H](O)CC(=O)O)c(-c2ccc(F)c(C)c2)c1 | – | – | – | – |
| 13 | CCc1c(CCP(=O)(O)C[C@@H](O)CC(=O)O)n(-c2ccc(F)cc2)c2ccccc12 | – | – | – | – |
| 4600 | COP(=O)(CCc1c(C)cc(C)cc1-c1ccc(F)c(C)c1)C[C@@H](O)CC(=O)O (stereo partly specified) | – | – | – | – |
| – | CC[C@H](C)C(=O)O[C@H]1C[C@@H](C)C=C2C=C[C@H](C)[C@H](CC[C@@H](O)C[C@@H](O)CC(=O)[O-])[C@H]21.[Na+] | 0.4 | 0.033 | 19 | 146 |

| SMILES | IC50 [1] [nM] | ED50 (Rattus norvegicus [2]) [mg/kg] | ED50 (Rattus norvegicus [3]) [mg/kg] | IC50 (Homo sapiens) [nM] | IC50 (Rattus norvegicus [4]) [nM] |
| --- | --- | --- | --- | --- | --- |
| COP(=O)(C[C@@H](O)CC(=O)O)NCc1c(C)cc(C)cc1-c1ccc(F)c(C)c1 (stereo partly specified) | 70500 | – | – | – | – |
